According to patent US20250066288A1, “DIHYDRAZIDE-DIHYDRAZONE COMPOUNDS WITH ADAMANTYL MOIETY AND A PROCESS FOR SYNTHESIS OF THE SAME” (priority 2022, published 2025):
Like-named read-outs stand apart in the source and are kept apart here.

Columns and labels:
[1] = system: Staphylococcus aureus (ATCC 6538); experiment: Antimicrobial activity test by tube dilution method, bacteria; assay type: cell-based; settings: for killing at 50000 µg/mL: Staphylococcus aureus, ATCC6538, 0.05 h, read-out: S. aureus % killing
Description: (§1) The antimicrobial activity of the compounds was determined by tube dilution method. Powdery compounds were taken in closed glass vials and were tested against Staphylococcus aureus (ATCC 6538) (bacteria) and Candida Albicans (ATCC 10231) (Fungi). 50 mg of the sample was taken in 1 ml of DMSO and the contact time for the sample was maintained as 3 minutes. The medium for microorganisms was Soyabean Casein Digest Agar for bacteria and Sabouraud's Dextrose Agar for fungi. The incubation time for bacteria was 2 days at 30-35° C. while for fungi was 3-5 days at 20-25° C.

[2] = system: Candida Albicans (ATCC 10231); experiment: Antimicrobial activity test by tube dilution method, fungi; assay type: cell-based; settings: for killing at 50000 µg/mL: Candida albicans, ATCC10231, 0.05 h, read-out: C. albicans % killing
Description: as §1

[3] = 50 mg sample in 1 ml DMSO, contact time 3 minutes, Soyabean Casein Digest Agar, 2 days at 30-35° C.
[4] = 50 mg sample in 1 ml DMSO, contact time 3 minutes, Sabouraud's Dextrose Agar, 3-5 days at 20-25° C.

Structure (SMILES)	S. aureus Final Count [1, 3]	killing at 50000 µg/mL [1]	C. albicans Final Count [2, 4]	killing at 50000 µg/mL [2]	killing at 50000 µg/mL [1, 3]	killing at 50000 µg/mL [2, 4]	S. aureus % killing [1, 3]	C. albicans % killing [2, 4]
O=C(N/N=C\c1ccc([N+](=O)[O-])cc1)C12CC3CC(C1)CC(C(=O)N/N=C/c1ccc([N+](=O)[O-])cc1)(C3)C2 [Compound 5a, Bis [N′-(4-nitro)benzylidene]adamantane-1,3-dicarbohydrazide]	0	100%	0	100%	–	–	–	–
COc1cc(/C=N\NC(=O)C23CC4CC(C2)CC(C(=O)N/N=C/c2ccc(O)c(OC)c2)(C4)C3)ccc1O [Compound 5b, Bis [N′-(3-methoxy, 4-hydroxy)benzylidene]adamantane-1,3-dicarbohydrazide]	1680000	–	0	–	90.3%	100%	–	–
C/C(=N/NC(=O)C12CC3CC(C1)CC(C(=O)N/N=C(\C)c1cc(C)ccc1O)(C3)C2)c1cc(C)ccc1O [Compound 5c, Bis [N′-(1-(2-hydroxy, 5-methyl phenyl)ethylidene)]adamantane-1,3-dicarbohydrazide]	2980000	–	10	–	82.9%	100%	–	–
COc1ccc(/C=N\NC(=O)C23CC4CC(C2)CC(C(=O)N/N=C/c2ccc(OC)c(OC)c2)(C4)C3)cc1OC [Compound 5d]	10300000	–	0	–	50.2%	100%	–	–
CCOc1ccc(/C(C)=N\NC(=O)C23CC4CC(C2)CC(C(=O)N/N=C(\C)c2ccc(OCC)cc2)(C4)C3)cc1 [Compound 5e, Bis [N′-(1-(4-ethoxy)ethylidene)]adamantane-1,3-dicarbohydrazide]	16400000	–	0	–	16.8%	100%	–	–
O=C(N/N=C\c1ccc2ccccc2c1)C12CC3CC(C1)CC(C(=O)N/N=C/c1ccc4ccccc4c1)(C3)C2 [Compound 5f]	16000000	–	0	–	20.4%	100%	–	–
O=C(N/N=C/c1ccc([N+](=O)[O-])o1)C12CC3CC(C1)CC(C(=O)N/N=C/c1ccc([N+](=O)[O-])o1)(C3)C2 [Compound 5g]	10	100%	0	100%	–	–	–	–
COc1cc(/C=N\NC(=O)C23CC4CC(C2)CC(C(=O)N/N=C/c2cc(OC)c(O)c([N+](=O)[O-])c2)(C4)C3)cc([N+](=O)[O-])c1O [Compound 5h, Bis [N′-(3-nitro, 4-hydroxy, 5-methoxy)benzylidene]adamantane-1,3-dicarbohydrazide]	0	100%	0	100%	–	–	–	–
Cc1ccc(/C=N/NC(=O)C23CC4CC(C2)CC(C(=O)N/N=C/c2ccc(C)cc2)(C4)C3)cc1 [Compound 5i, Bis[N′-(4-methyl)benzylidene]adamantane-1,3-dicarbohydrazide]	3120000	–	0	–	85%	100%	–	–
O=C(N/N=C/c1ccc(O)cc1)C12CC3CC(C1)CC(C(=O)N/N=C/c1ccc(O)cc1)(C3)C2 [Compound 5j, Bis[N′-(4-hydroxy)benzylidene]adamantane-1,3-dicarbohydrazide]	550000	–	0	–	97.2%	100%	–	–
C/C(=N\NC(=O)C12CC3CC(C1)CC(C(=O)N/N=C(\C)c1ccc(O)cc1)(C3)C2)c1ccc(O)cc1 [Compound 5k, Bis[N′-(1-(4-hydroxyphenyl)ethylidene)]adamantane-1,3-dicarbohydrazide]	7500000	–	0	–	60.3%	100%	–	–
COc1cc(/C=N/NC(=O)C23CC4CC(C2)CC(C(=O)N/N=C/c2cc(Br)c(O)c(OC)c2)(C4)C3)cc(Br)c1O [Compound 5l, Bis[N′-(3-bromo,4hydroxy,5-methoxy)benzylidene]adamantane-1,3-dicarbohydrazide]	0	–	0	–	100%	100%	–	–
O=C(N/N=C\c1cccs1)C12CC3CC(C1)CC(C(=O)N/N=C/c1cccs1)(C3)C2 [Compound 5m]	1230000	–	0	–	93.4%	100%	–	–
CCOc1ccc(/C=N/NC(=O)C23CC4CC(C2)CC(C(=O)N/N=C/c2ccc(OCC)cc2)(C4)C3)cc1 [Compound 5n, Bis[N′-(4-ethoxy)benzylidene]adamantane-1,3-dicarbohydrazide]	10	–	0	–	100%	100%	–	–
O=C(NN=Cc1ccc(Cl)c([N+](=O)[O-])c1)C12CC3CC(C1)CC(C(=O)NN=Cc1ccc(Cl)c([N+](=O)[O-])c1)(C3)C2 [Compound 5o, Bis[N′-(3-nitro,4-chloro)benzylidene]adamantane-1,3-dicarbohydrazide]	18400000	–	0	–	–	–	9.36%	100.00%
O=C(N/N=C/c1ccc(Br)cc1)C12CC3CC(C1)CC(C(=O)N/N=C/c1ccc(Br)cc1)(C3)C2 [Compound 5p, Bis[N′-(4-bromo)benzylidene]adamantane-1,3-dicarbohydrazide]	2310000	–	0	–	88.7%	100%	–	–
COc1ccc(/C=N/NC(=O)C23CC4CC(C2)CC(C(=O)N/N=C/c2ccc(OC)cc2)(C4)C3)cc1 [Compound 5q, Bis[N′-(4-methoxy)benzylidene]adamantane-1,3-dicarbohydrazide]	14400000	–	0	–	26.1%	100%	–	–
CC(=NNC(=O)C12CC3CC(C1)CC(C(=O)NN=C(C)c1ccc(Cl)c([N+](=O)[O-])c1)(C3)C2)c1ccc(Cl)c([N+](=O)[O-])c1 [Compound 5r, Bis[N′-(1-(3-nitro,4-chloro)ethylidene)]adamantane-1,3-dicarbohydrazide]	5100000	–	0	–	–	–	74.24%	100.00%
